Laboratory results published in patent US4409210A, “Antibiotic compound” (priority 1982, dated 1983).
Converted amounts (≈) assume the structure as drawn. *1 amine or outer side, *2 acyl side, *3 side chain or, on linkers, in order; H or OH if unused. Where a SMILES comes first, the peptide text is derived from it. Bridges are numbered along the chain shown (N, C = ends). [ ]: non-standard residue; d: D form. ξ: configuration not given here. X2 = CCCCCCCCCCCC(CC(=O)[*:1])O[*:2]; ξAsp(3ξ-OH) = NC(C(=O)O)C(O)C(=O)O; X1 = O=C(C1C(O)CCN1[*:1])[*:2]

What was measured:
Format in all cases: cell-based
[1] = system: Staphylococcus aureus A20239; assay: MIC, serial two-fold dilution method (aerobic); details: Staphylococcus aureus A20239, Mueller-Hinton agar, inoculum 10^4; for MIC: read-out: minimum inhibitory concentration (MIC)
[2] = system: Streptococcus pyogenes S-23; assay: MIC, serial two-fold dilution method (aerobic); details: Streptococcus pyogenes S-23; GC medium; inoculum 10^6 CFU/ml
[3] = system: Staphylococcus aureus A9748; assay: MIC, serial two-fold dilution method (aerobic); details: Staphylococcus aureus A9748, Mueller-Hinton agar, inoculum 10^4; for MIC: read-out: minimum inhibitory concentration (MIC)
[4] = system: Streptococcus pneumoniae A15069; assay: MIC, serial two-fold dilution method (aerobic); details: Streptococcus pneumoniae A15069; GC medium; inoculum 10^6 CFU/ml
[5] = system: Bacteroides fragilis CUH-9; assay: MIC, serial two-fold dilution method (anaerobic); details: Bacteroides fragilis CUH-9, GAM agar medium, inoculum 10^7-10^8; for MIC: CUH9, read-out: minimum inhibitory concentration (MIC)
[6] = system: Staphylococcus aureus A20701; assay: MIC, serial two-fold dilution method (aerobic); details: Staphylococcus aureus A20701, Mueller-Hinton agar, inoculum 10^4; for MIC: read-out: minimum inhibitory concentration (MIC)
[7] = system: Veillonella alcalescens A21914-1; assay: MIC, serial two-fold dilution method (anaerobic); details: Veillonella alcalescens A21914-1, GAM agar medium, inoculum 10^7-10^8; for MIC: Veillonella parvula, A219141, read-out: minimum inhibitory concentration (MIC)
[8] = system: Clostridium perfringens A9635; assay: microbe, parasite or virus in culture; details: for MIC: Clostridium perfringens, A9635, read-out: minimum inhibitory concentration (MIC)
[9] = system: Clostridium acidiurici A9560; assay: MIC, serial two-fold dilution method (anaerobic); details: Clostridium acidiurici A9560, GAM agar medium, inoculum 10^7-10^8; for MIC: Gottschalkia acidurici, read-out: minimum inhibitory concentration (MIC)
[10] = system: Klebsiella pneumoniae D-11; assay: MIC, serial two-fold dilution method (aerobic); details: Klebsiella pneumoniae D-11, Mueller-Hinton agar, inoculum 10^4; for MIC: D11, read-out: minimum inhibitory concentration (MIC)
[11] = system: Escherichia coli NIHJ; assay: MIC, serial two-fold dilution method (aerobic); details: Escherichia coli NIHJ, Mueller-Hinton agar, inoculum 10^4; for MIC: read-out: minimum inhibitory concentration (MIC)
[12] = system: Peptostreptococcus anaerobius A21905; assay: MIC, serial two-fold dilution method (anaerobic); details: Peptostreptococcus anaerobius A21905, GAM agar medium, inoculum 10^7-10^8; for MIC: read-out: minimum inhibitory concentration (MIC)
[13] = system: Peptococcus magnas A21676; assay: MIC, serial two-fold dilution method (anaerobic); details: Peptococcus magnas A21676, GAM agar medium, inoculum 10^7-10^8; for MIC: read-out: minimum inhibitory concentration (MIC)
[14] = system: Bacteroides fragilis A22695; assay: MIC, serial two-fold dilution method (anaerobic); details: Bacteroides fragilis A22695, GAM agar medium, inoculum 10^7-10^8; for MIC: read-out: minimum inhibitory concentration (MIC)
[15] = system: Clostridium difficile A21675; assay: MIC, serial two-fold dilution method (anaerobic); details: Clostridium difficile A21675, GAM agar medium, inoculum 10^7-10^8; for MIC: Clostridioides difficile, read-out: minimum inhibitory concentration (MIC)
Experimental: (§1) The minimum inhibitory concentration (MIC) of Bu-2517 was determined for a variety of aerobic and anaerobic bacteria by the serial two-fold dilution method using a multi-inoculating apparatus. Mueller-Hinton agar was generally used for aerobic bacteria, GC medium (Eiken) for fastidious aerobic organisms such as streptococci, Neisseria and Haemophilus species, and GAM agar medium (Nissui) for anaerobic bacteria. The inoculum size was adjusted to 10^6 CFU/ml for streptococci, Neisseria and Haemophilus species, 10^4 for other aerobic bacteria and 10^7 -10^8 for all anaerobic organisms. Amphomycin, ampicillin, chloramphenicol, clindamycin, erthromycin, kanamycin and vancomycin were used as reference antibiotics.

[16] = system: Clostridium septicum A21869; assay: MIC, serial two-fold dilution method (anaerobic); details: Clostridium septicum A21869, GAM agar medium, inoculum 10^7-10^8; for MIC: read-out: minimum inhibitory concentration (MIC)
Experimental: as §1

[17] = system: Clostridium chauvoei A9561; assay: MIC, serial two-fold dilution method (anaerobic); details: Clostridium chauvoei A9561, GAM agar medium, inoculum 10^7-10^8; for MIC: read-out: minimum inhibitory concentration (MIC)
Experimental: as §1

[18] = system: Clostridium difficile A21972; assay: MIC, serial two-fold dilution method (anaerobic); details: Clostridium difficile A21972, GAM agar medium, inoculum 10^7-10^8; for MIC: Clostridioides difficile, read-out: minimum inhibitory concentration (MIC)
Experimental: as §1

[19] = system: Sarcina lutea PCI-1001; assay: MIC, serial two-fold dilution method (aerobic); details: Sarcina lutea PCI-1001, Mueller-Hinton agar, inoculum 10^4; for MIC: Micrococcus luteus, PCI1001, read-out: minimum inhibitory concentration (MIC)
[20] = system: Fusobacterium necrophorum A20013; assay: MIC, serial two-fold dilution method (anaerobic); details: Fusobacterium necrophorum A20013, GAM agar medium, inoculum 10^7-10^8; for MIC: read-out: minimum inhibitory concentration (MIC)
[21] = system: Propionibacterium acnes A22650; assay: MIC, serial two-fold dilution method (anaerobic); details: Propionibacterium acnes A22650, GAM agar medium, inoculum 10^7-10^8; for MIC: Cutibacterium acnes, read-out: minimum inhibitory concentration (MIC)
[22] = system: Proteus mirabilis A9554; assay: MIC, serial two-fold dilution method (aerobic); details: Proteus mirabilis A9554, Mueller-Hinton agar, inoculum 10^4; for MIC: read-out: minimum inhibitory concentration (MIC)
[23] = system: Clostridium ramosum A21970; assay: MIC, serial two-fold dilution method (anaerobic); details: Clostridium ramosum A21970, GAM agar medium, inoculum 10^7-10^8; for MIC: Thomasclavelia ramosa, read-out: minimum inhibitory concentration (MIC)
[24] = system: Bacteroides fragilis A22533; assay: MIC, serial two-fold dilution method (anaerobic); details: Bacteroides fragilis A22533, GAM agar medium, inoculum 10^7-10^8; for MIC: read-out: minimum inhibitory concentration (MIC)
[25] = system: Bacteroides fragilis A20926; assay: MIC, serial two-fold dilution method (anaerobic); details: Bacteroides fragilis A20926, GAM agar medium, inoculum 10^7-10^8; for MIC: read-out: minimum inhibitory concentration (MIC)
[26] = system: S. aureus 209P; assay: Antibiotic sensitivity, paper disc-agar diffusion method; design: key: S (sensitive); R (resistant); I (intermediate); details: nutrient agar, 2 day's incubation at 28° C., Difco discs, amount/disc per antibiotic

CCCCCCCCCCCC1CC(=O)N2CCCC2C(=O)NC(CO)C(=O)N2CCCC2C(=O)NC(CCCNC(=N)N)C(=O)NC(C(O)C(=O)O)C(=O)NC(CO)C(=O)N2CCC(O)C2C(=O)NC(C(O)C(=O)O)C(=O)O1 (stereo not shown) [Bu-2517] (PSPR[ξAsp(3ξ-OH)]S[X1][ξAsp(3ξ-OH)]; linker N-C via X2; configuration not given here)
minimum inhibitory concentration (MIC) [1]: 1.6 µg/mL (≈ 1.42 µM) | minimum inhibitory concentration (MIC) [2]: 1.6 µg/mL (≈ 1.42 µM) | minimum inhibitory concentration (MIC) [3]: 1.6 µg/mL (≈ 1.42 µM) | minimum inhibitory concentration (MIC) [4]: 1.6 µg/mL (≈ 1.42 µM) | minimum inhibitory concentration (MIC) [5]: 100 µg/mL (≈ 88.8 µM) | minimum inhibitory concentration (MIC) [6]: 1.6 µg/mL (≈ 1.42 µM) | minimum inhibitory concentration (MIC) [7]: 1.6 µg/mL (≈ 1.42 µM) | minimum inhibitory concentration (MIC) ([8]; Clostridium perfringens A9635, GAM agar medium, inoculum 10^7-10^8): 1.6 µg/mL (≈ 1.42 µM) | minimum inhibitory concentration (MIC) [9]: 1.6 µg/mL (≈ 1.42 µM) | minimum inhibitory concentration (MIC) [10]: > 100 µg/mL | minimum inhibitory concentration (MIC) [11]: > 100 µg/mL | minimum inhibitory concentration (MIC) [12]: 0.8 µg/mL (≈ 0.71 µM) | minimum inhibitory concentration (MIC) [13]: 1.6 µg/mL (≈ 1.42 µM) | minimum inhibitory concentration (MIC) [14]: > 100 µg/mL | minimum inhibitory concentration (MIC) [15]: 1.6 µg/mL (≈ 1.42 µM) | minimum inhibitory concentration (MIC) [16]: 1.6 µg/mL (≈ 1.42 µM) | minimum inhibitory concentration (MIC) [17]: 3.1 µg/mL (≈ 2.75 µM) | minimum inhibitory concentration (MIC) [18]: 1.6 µg/mL (≈ 1.42 µM) | minimum inhibitory concentration (MIC) [19]: < 0.05 µg/mL | minimum inhibitory concentration (MIC) [20]: > 100 µg/mL | minimum inhibitory concentration (MIC) [21]: 0.8 µg/mL (≈ 0.71 µM) | minimum inhibitory concentration (MIC) [22]: > 100 µg/mL | minimum inhibitory concentration (MIC) [23]: 1.6 µg/mL (≈ 1.42 µM) | minimum inhibitory concentration (MIC) [24]: > 100 µg/mL | minimum inhibitory concentration (MIC) [25]: 25 µg/mL (≈ 22.2 µM)

O=C(N[C@H](CO)[C@H](O)c1ccc([N+](=O)[O-])cc1)C(Cl)Cl [Chloramphenicol]
MIC [1]: 6.3 µg/mL (≈ 19.5 µM) | MIC [3]: 6.3 µg/mL (≈ 19.5 µM) | MIC [5]: 1.6 µg/mL (≈ 4.95 µM) | MIC [6]: 50 µg/mL (≈ 155 µM) | MIC [7]: 1.6 µg/mL (≈ 4.95 µM) | MIC [8]: 3.1 µg/mL (≈ 9.59 µM) | MIC [9]: 6.3 µg/mL (≈ 19.5 µM) | MIC [10]: 1.6 µg/mL (≈ 4.95 µM) | MIC [11]: 0.8 µg/mL (≈ 2.48 µM) | MIC [12]: 1.6 µg/mL (≈ 4.95 µM) | MIC [13]: 1.6 µg/mL (≈ 4.95 µM) | MIC [14]: 3.1 µg/mL (≈ 9.59 µM) | MIC [15]: 3.1 µg/mL (≈ 9.59 µM) | MIC [16]: 6.3 µg/mL (≈ 19.5 µM) | MIC [17]: 6.3 µg/mL (≈ 19.5 µM) | MIC [18]: 3.1 µg/mL (≈ 9.59 µM) | MIC [19]: 1.6 µg/mL (≈ 4.95 µM) | MIC [20]: 6.3 µg/mL (≈ 19.5 µM) | Sensitivity S. aureus 209P [26]: S | MIC [21]: 0.4 µg/mL (≈ 1.24 µM) | MIC [22]: 12.5 µg/mL (≈ 38.7 µM) | MIC [23]: 6.3 µg/mL (≈ 19.5 µM) | MIC [24]: 3.1 µg/mL (≈ 9.59 µM) | MIC [25]: 3.1 µg/mL (≈ 9.59 µM)

CC[C@H]1OC(=O)[C@H](C)[C@@H](O[C@H]2C[C@@](C)(OC)[C@@H](O)[C@H](C)O2)[C@H](C)[C@@H](O[C@@H]2O[C@H](C)C[C@H](N(C)C)[C@H]2O)[C@](C)(O)C[C@@H](C)C(=O)[C@H](C)[C@@H](O)[C@]1(C)O [Erythromycin]
MIC [1]: 12.5 µg/mL (≈ 17 µM) | MIC [3]: 0.4 µg/mL (≈ 0.545 µM) | MIC [5]: 6.3 µg/mL (≈ 8.58 µM) | MIC [6]: > 100 µg/mL | MIC [7]: 0.2 µg/mL (≈ 0.273 µM) | MIC [8]: 0.8 µg/mL (≈ 1.09 µM) | MIC [9]: 1.6 µg/mL (≈ 2.18 µM) | MIC [10]: 100 µg/mL (≈ 136 µM) | MIC [11]: 100 µg/mL (≈ 136 µM) | MIC [12]: 0.8 µg/mL (≈ 1.09 µM) | MIC [13]: 0.8 µg/mL (≈ 1.09 µM) | MIC [14]: 3.1 µg/mL (≈ 4.22 µM) | MIC [15]: > 100 µg/mL | MIC [16]: 0.8 µg/mL (≈ 1.09 µM) | MIC [17]: 1.6 µg/mL (≈ 2.18 µM) | MIC [18]: 3.1 µg/mL (≈ 4.22 µM) | MIC [19]: < 0.05 µg/mL | MIC [20]: > 100 µg/mL | Sensitivity S. aureus 209P [26]: S | MIC [21]: < 0.0063 µg/mL | MIC [22]: > 100 µg/mL | MIC [23]: 0.1 µg/mL (≈ 0.136 µM) | MIC [24]: 0.4 µg/mL (≈ 0.545 µM) | MIC [25]: < 0.05 µg/mL
